{"source": "patent US10683553B2", "about": "“Method for determining sensitivity to simultaneous inhibitor against PARP and Tankyrase” (THE ASAN FOUNDATION, priority 2015, dated 2020)", "assay_in_all_cases": "Trypan blue staining apoptosis assay", "format_in_all_cases": "cell-based", "key": {"[1]": {"test_system": "SW620 human colon cancer cell line", "details": "SW620 (p53 MT/LIG4 WT); 25 μM and 50 μM, 48 hours", "from_the_text": "(§1) In order to analyze the degree of apoptosis of Compound A, which is a novel PARP/Tankyrase simultaneous inhibitor according to a p53 genotype and LIG4 genotype, the present inventors treated a novel PARP/Tankyrase simultaneous inhibitor, Compound A, and a competitive drug PARP inhibitor, olaparib, in RKO, LoVo human colon cancer cell line in which the p53 gene is a normal type and the LIG4 gene is a mutant type and an SW620 human colon cancer cell line in which the p53 gene is a mutant type and the LIG4 gene is a normal type. The number of cells was measured by trypan blue staining assay to confirm the degree of apoptosis. The conditions and methods of the experiment were as follows: RKO, LoVo human colon cancer cell line in which the p53 gene is a normal type and the LIG4 gene is a mutant type and the SW620 human colon cancer cell line in which the p53 gene is a mutant type and the LIG4 gene is a normal type were cultured in RPMI1640 (10% FBS, 1% penicillin/streptomycin) and cultured in a 60 mm plate at 1×10^5 per well for 24 hours at 37° C. Compound A, which is a novel PARP/Tankyrase simultaneous inhibitor, and olaparib, which is a competitive drug PARP inhibitor, were treated with each of 25 μM and 50 μM and were cultured for 48 hours. The number of cells was measured by trypan blue staining assay to confirm the degree of apoptosis.\n(§2) In order to analyze the degree of apoptosis of Compounds A and B, which are novel PARP/Tankyrase simultaneous inhibitors, in a cell line RKO in which the p53 genotype is a normal type and an LIG4 genotype is a mutant type, a cell line SW620 in which the p53 genotype is a mutant type and an LIG4 genotype is a normal type, a cell line HCT8 in which the p53 genotype and an LIG4 genotype are normal, and a cell line KM12C in which the p53 genotype and an LIG4 genotype are mutant, the human colon cancer cell lines of RKO, HCT, SW620 and KM12C with different p53 genotype and LIG4 genotype were cultured in RPMI1640 (10% FBS, 1% penicillin/streptomycin) and cultured in a 60 mm plate at 1×10^5 per well for 24 hours at 37° C. Compounds A and B, which are novel PARP/Tankyrase simultaneous inhibitors, and olaparib, which is a competitive drug PARP inhibitor, and NVP-TNKS656, which is a Tankyrase inhibitor, were treated with each of 25 μM and 50 μM. After 48 hours of culturing, the number of cells was measured by trypan blue staining assay to confirm the degree of apoptosis."}, "[2]": {"test_system": "KM12C human colon cancer cell line", "details": "KM12C (p53 MT/LIG4 MT); 25 μM and 50 μM, 48 hours", "from_the_text": "as §2"}, "[3]": {"test_system": "HCT8 human colon cancer cell line", "details": "HCT8 (p53 WT/LIG4 WT); 25 μM and 50 μM, 48 hours", "from_the_text": "as §2"}, "[4]": {"test_system": "RKO human colon cancer cell line", "details": "RKO (p53 WT/LIG4 MT); 25 μM and 50 μM, 48 hours", "from_the_text": "as §1\nIn order to analyze the degree of apoptosis of Compound A, which is a novel PARP/Tankyrase simultaneous inhibitor, according to the p53 genotype and an LIG4 genotype, the present inventors treated Compounds A and B, which are novel PARP/Tankyrase simultaneous inhibitors, in the RKO and LoVo human colon cancer cell lines in which the p53 gene is a normal type and an LIG4 gene is a mutant type. Then, the number of cells was measured by trypan blue staining assay to confirm the degree of apoptosis. The RKO and LoVo human colon cancer cell lines were cultured under the same conditions as in Example 5. Compounds A and B, which are novel PARP/Tankyrase simultaneous inhibitors, were treated with 25 μM and 50 μM, respectively, for 48 hours. After 48 hours of culturing, the number of cells was measured by trypan blue staining assay to confirm the degree of apoptosis. […]"}}}
{"smiles": "COc1ccc(C(=O)C2CCN(CC(=O)N(Cc3nc4c(c(=O)[nH]3)COCC4)CC3CC3)CC2)cc1", "note": "[NVP-TNKS656, reference compound]", "values": [{"measurement": "degree of apoptosis (trypan blue cell count)", "setting": "[1]", "result": "No apoptosis occurred"}, {"measurement": "degree of apoptosis (trypan blue cell count)", "setting": "[2]", "result": "No apoptosis occurred"}, {"measurement": "degree of apoptosis (trypan blue cell count)", "setting": "[3]", "result": "No apoptosis occurred"}, {"measurement": "degree of apoptosis (trypan blue cell count)", "setting": "[4]", "result": "no change in apoptosis"}]}
